The values that follow come from ChEMBL document CHEMBL2094260, “Malaria Box Tuberculosis Screening Data”.

Converted amounts (≈) assume the structure as drawn.

Data set [1] concerns Mycobacterium tuberculosis. Description: MMV: Screen against Mtb, single point, non replicating, at 25uM. Type of data set: functional.
The test system of data set [2] is Mycobacterium tuberculosis. Description: MMV: CRC and MIC90 against Mtb (non replicating). It is filed as functional.
Data set [3] has as its system Mycobacterium tuberculosis. Description: MMV: Screen against Mtb, single point, replicating, at 25uM. It is filed as functional.
Data set [4] is described as follows: MMV: Cytotoxicity CRC and LD50 against HepG2. As to conditions: human, HepG2 cells; read-out: LD50 (the source's name). It is filed as toxicity, cell-based.
Data set [5] relates to Mycobacterium tuberculosis. Nature of the data set: MMV: CRC and MIC90 against Mtb (replicating). It is filed as functional.

As usually defined, the inhibition is the change of the read-out against control, counted positive when it falls. Usually MIC90 stands for the lowest concentration that inhibits either 90% of growth or 90% of the strains tested, depending on the study. In the case of `COc1ccc(C2c3ccc4ccccc4c3Oc3ncn(CCCN(C)C)c(=N)c32)cc1` (stereo not given), the inhibition at 25 µM in data set [1] worked out at 47.1%; in data set [3], 98.1%. In addition, the MIC90 in data set [2] was greater than 100 µM; in data set [5], 16.9 µM (≈ 7.45 µg/mL). In data set [4], the CC50 was 1.53 µM.

In the case of `N=c1n(CCN2CCCCC2)c2ccccc2n1CC(=O)c1ccc(Cl)c(Cl)c1`, the inhibition at 25 µM turned out to be 17.6% in data set [1] and 96.3% in data set [3]. The MIC90 was greater than 100 µM in data set [2] and 21.1 µM (≈ 9.1 µg/mL) in data set [5]. Moreover, in data set [4], the CC50 amounted to 6.5 µM.

Turning to `Brc1ccc(Nc2nc3ccccc3nc2Nc2ccc(Br)cc2)cc1`, the values for the inhibition at 25 µM in data set [1] and in data set [3] were 100% and 101%, respectively. Further, the values for the MIC90 in data set [2] and in data set [5] were 11.5 µM (≈ 5.41 µg/mL) and 3.73 µM (≈ 1.75 µg/mL), respectively. The CC50 in data set [4] came to 2.69 µM.

`Nc1ccc(-c2nc3cc(Cc4ccc5[nH]c(-c6ccc(N)cc6)nc5c4)ccc3[nH]2)cc1`: the inhibition at 25 µM in data set [1] is 41.4%; in data set [3], 94%. Further, the MIC90 in data set [2] was greater than 100 µM; in data set [5], 10.9 µM (≈ 4.69 µg/mL). In addition, the CC50 in data set [4] was 2.45 µM.

For `CCCCOC(=O)c1ccc(Nc2cc(C)nc3ccc(OC)cc23)cc1`, the inhibition at 25 µM in data set [1] stood at 24.7%; in data set [3] it was 96.5%. In addition, the MIC90 in data set [2] is greater than 100 µM; in data set [5], 94.9 µM (≈ 34.6 µg/mL). The CC50 in data set [4] is 6.93 µM.

Take `Cc1cc(Nc2ccc(OCc3ccccc3)cc2)nc2cc(O)ccc12`: the inhibition at 25 µM was found to be 10% in data set [1] and 99.8% in data set [3]. Besides, the MIC90 is 50 µM (≈ 17.8 µg/mL) in data set [2] and 19.9 µM (≈ 7.09 µg/mL) in data set [5]. The CC50 in data set [4] amounted to 8.16 µM.

On to `CCOc1ccc2nc(C)cc(Nc3ccc(N(C)C)cc3)c2c1`, for which the inhibition at 25 µM worked out at 15.7% in data set [1] and 78% in data set [3]. Further, the MIC90 in data set [2] amounted to 67.4 µM (≈ 21.7 µg/mL); in data set [5], 38.3 µM (≈ 12.3 µg/mL). Also, the CC50 in data set [4] turned out to be 7.38 µM.

With `COc1ccc(Nc2cc(C)nc(NCc3ccccc3)n2)cc1`, the inhibition at 25 µM in data set [1] came to 22.6%; in data set [3], 95.5%. Moreover, the MIC90 was greater than 100 µM in data set [2] and 18 µM (≈ 5.77 µg/mL) in data set [5]. Besides, the CC50 in data set [4] was 6.9 µM.

As for `COc1ccc(C2NCCc3c2[nH]c2ccccc32)cc1CN1CCN(c2ccc(F)cc2)CC1` (stereo not given), the inhibition at 25 µM in data set [1] is 15.9%; in data set [3] it was 87.9%. Also, the MIC90 is greater than 100 µM in data set [2] and 25.9 µM (≈ 12.2 µg/mL) in data set [5]. The CC50 in data set [4] was found to be 2.28 µM.

For the molecule `O=C1c2ccc3c4c(ccc(c24)C(=O)N1CCCCO)C(=O)N(CCCCO)C3=O`, the inhibition at 25 µM in data set [1] came to 39.6%; in data set [3], 89.3%. Also, the MIC90 in data set [2] was 79.1 µM (≈ 32.5 µg/mL); in data set [5], 36.5 µM (≈ 15 µg/mL). In addition, the CC50 in data set [4] was 0.904 µM.

On to `OCCNc1nc(Nc2ccc(Cl)c(Cl)c2)nc2ccccc12`, for which the inhibition at 25 µM is 84.5% in data set [1] and 94% in data set [3]. The MIC90 was 20.2 µM (≈ 7.05 µg/mL) in data set [2] and 3.59 µM (≈ 1.25 µg/mL) in data set [5]. In addition, in data set [4], the CC50 worked out at 7.18 µM.

`Nc1ccc(-c2nc3cc(Oc4ccc(Oc5ccc6[nH]c(-c7ccc(N)cc7)nc6c5)cc4)ccc3[nH]2)cc1`: the inhibition at 25 µM in data set [1] was 11.8%; in data set [3] it was 98.8%. Also, the figures for the MIC90 in data set [2] and in data set [5] were greater than 100 µM and 19.2 µM (≈ 10.1 µg/mL), respectively. In addition, the CC50 in data set [4] was determined as 5.37 µM.

For `CCOC(=O)c1cnc2ccc(OC)cc2c1Nc1ccc(N2CCN(C)CC2)cc1`, the inhibition at 25 µM in data set [1] is 31.3%; in data set [3], 78.8%. For the same molecule, the MIC90 in data set [2] is greater than 100 µM; in data set [5], 35.9 µM (≈ 15.1 µg/mL). In data set [4], the CC50 was found to be 22.8 µM.

Take `Cc1cc(N(C)C)nc(Nc2ccc(NC(=O)Nc3ccccc3)cc2)n1`: the inhibition at 25 µM came out at 3.62% in data set [1] and 98.1% in data set [3]. Besides, the MIC90 in data set [2] is greater than 100 µM; in data set [5], 19.3 µM (≈ 7 µg/mL). The CC50 in data set [4] came to 11.2 µM.

As to `Cc1ccc(Nc2nc(N)c3ccccc3n2)cc1Cl`, the inhibition at 25 µM in data set [1] came out at 7.17%; in data set [3] it was 96.6%. The MIC90 in data set [2] was greater than 100 µM; in data set [5], 24.7 µM (≈ 7.03 µg/mL). The CC50 in data set [4] stood at 10.9 µM.

Turning to `Cc1ccc2c(C)nc(Nc3nc(C)cc(-c4ccccc4)n3)nc2c1`, the inhibition at 25 µM came to 24.2% in data set [1] and 96.8% in data set [3]. Also, the MIC90 in data set [2] amounted to 57.9 µM (≈ 19.8 µg/mL); in data set [5] it was 18.6 µM (≈ 6.35 µg/mL). In data set [4], the CC50 was greater than 100 µM.

`c1ccc(CNc2nc(Nc3ccccc3)nc3ccccc23)cc1`: the inhibition at 25 µM was found to be 21.2% in data set [1] and 96.2% in data set [3]. Also, the results for the MIC90 in data set [2] and in data set [5] were 39.4 µM (≈ 12.9 µg/mL) and 7.46 µM (≈ 2.43 µg/mL), respectively. For the same molecule, the CC50 in data set [4] came to 4.16 µM.

For the molecule `CCOc1ccc2nc(C)cc(Nc3ccc(Br)cc3)c2c1`, the inhibition at 25 µM is 11.1% in data set [1] and 95.7% in data set [3]. Also, the MIC90 in data set [2] was greater than 100 µM; in data set [5], 18.7 µM (≈ 6.68 µg/mL). Moreover, the CC50 in data set [4] stood at 3.95 µM.
